Values of other authors, collected in patent US20080181955A1, “Natural dietary supplement and method for enhancing human libido” (priority 2007, published 2008).

Legend:
[1] = oral
[2] = tested on: human endothelial NO synthase; settings: polyphenolic constituents of red wine
nitric oxide (NO) = settings: resveratrol alone
PDE-5 = PDE-5 (Homo sapiens, UniProt O76074); settings: resveratrol alone

| SMILES | eNOS expression [2] | further results |
| --- | --- | --- |
| CCCc1nn(C)c2c(=O)[nH]c(-c3cc(S(=O)(=O)N4CCN(C)CC4)ccc3OCC)nc12 [Sildenafil, sildenafil] | – | half-life [1]: about 4 hours |
| CN1CC(=O)N2[C@H](c3ccc4c(c3)OCO4)c3[nH]c4ccccc4c3C[C@@H]2C1=O [Tadalafil, tadalafil] | – | half-life [1]: about 17.5 hours |
| O=C(O)c1ccccc1 [benzoic acid] | enhanced eNOS expression moderately | – |
| O=C(O)/C=C/c1ccc(O)c(O)c1 [caffeic acid] | enhanced eNOS expression moderately | – |
| O=C(O)/C=C/c1ccc(O)cc1 [p-coumaric acid] | enhanced eNOS expression moderately | – |
| Oc1ccc(C=Cc2cc(O)cc(O)c2)cc1 [resveratrol] | – | release of NO (nitric oxide (NO)): releases NO; effect on PDE-5 (PDE-5): no recognizable effect on PDE-5 |
| Oc1ccc(/C=C/c2cc(O)cc(O)c2)cc1 [trans-resveratrol] | most efficacious stimulator of eNOS expression | – |
| COc1cc(C(=O)O)ccc1O [vanilla acid] | enhanced eNOS expression moderately | – |
